Source: US20050272814A1, “Medicine for prevention or treatment of diabetes” (priority 2004, published 2005)

Tested on: C57BL/KsJdb/db mice
Test: Hypoglycemic effect of single or combined administration in db/db mice (plasma glucose on day 14)
Format: in vivo, mouse
Details: for Decreasing rate: plasma glucose decrease vs control group mean
Description: As test animals, C57BL/KsJdb/db mice were used, which were created in Jackson Laboratory (USA) and known as an obesity, hyperlipemia, hyperinsulinemia, and insulin-resistant model (Journal of Clinical Investigation, 85, pp 962-967, 1990). Blood was collected from the orbital venous plexus of each 7-week-old db/db mouse using a heparin-treated capillary tube, and centrifugation was performed to collect plasma. Thereafter, the plasma glucose concentration (Glucose CII-Test Wako (Wako Pure Chemical Industries, Ltd.)), the insulin concentration (Lebis Insulin Kit: for mouse-T (SHIBAYAGI)), and the triglyceride concentration (Triglyceride E-Test Wako (Wako Pure Chemical Industries, Ltd.)) were measured for classification. The classification was performed so that distribution of each measurement item is uniform for each group by block allocation based on many variables in which the plasma glucose concentration is most emphasized using the measured values of the plasma glucose concentration, the body weight, the insulin concentration, and the triglyceride concentration. […] Two hours after the administration of the medicines on the 14th day from the beginning day of the administration, blood was collected from the orbital venous plexus, and the plasma thereof was collected to measure the plasma glucose concentration. […] Each plasma glucose concentration is expressed as mean±standard deviation for 6 mice of each group. Each decreasing rate is calculated from ((mean of plasma glucose concentration of control group)−(mean of plasma glucose concentration of each group))/(mean of plasma glucose concentration of control group)×100, while each relative index is calculated from (mean of plasma glucose concentration of each group)/(mean of plasma glucose concentration of control group).

SMILES | Decreasing rate (300 mg/kg oral once a day for 14 days) | Relative index (3 mg/kg oral once a day for 14 days, mean plasma glucose of group / control group) | Plasma glucose concentration (3 mg/kg oral once a day for 14 days, plasma 2 h after dosing on day 14, mean ± SD, 6 mice) | Decreasing rate (3 mg/kg oral once a day for 14 days) | Decreasing effect for the plasma glucose concentration (in words) (single administration 3 mg/kg, 14 days, compared with normal db/+m mouse level (187±16))
CN(C)C(=N)NC(=N)N.Cl [Metformin, 1,1-Dimethylbiguanide hydrochloride, reference compound] | 3% |  |  |  | 
O=C([O-])C(Cl)(Cl)CCCCCCCCCCc1ccc(Cl)cc1.[Na+] [sodium 2,2-dichloro-12-(4-chlorophenyl)-dodecanoate] |  | 0.89 | 241 ± 116 mg/dL | 11% | insufficient
